From EP1878743A2, “Urotensin-II agonists and antagonists” (The Administrators of The Tulane Educational Fund, priority 2000, dated 2002)
Bridge positions count the residues as written; N and C are the ends. Square brackets hold non-standard residues; d marks the D form. Ends that are not written are not given here. Peptide text beside a SMILES is read from it. dDip = N[C@@H](C(=O)O)C(c1ccccc1)c1ccccc1; Phe(4-Cl) = N[C@@H](Cc1ccc(Cl)cc1)C(=O)O; Phe(4-F) = N[C@@H](Cc1ccc(F)cc1)C(=O)O; 2Nal = N[C@@H](Cc1ccc2ccccc2c1)C(=O)O; 3Pal = N[C@@H](Cc1cccnc1)C(=O)O; Tle = CC(C)(C)[C@H](N)C(=O)O; Nal = naphthylalanine

T1: U-II receptors (Rattus norvegicus, UniProt P49684)
T1 construct: from tissue; host or cells: rat thoracic aorta (circular strips / rings)
T1 sequence (P49684 1-386): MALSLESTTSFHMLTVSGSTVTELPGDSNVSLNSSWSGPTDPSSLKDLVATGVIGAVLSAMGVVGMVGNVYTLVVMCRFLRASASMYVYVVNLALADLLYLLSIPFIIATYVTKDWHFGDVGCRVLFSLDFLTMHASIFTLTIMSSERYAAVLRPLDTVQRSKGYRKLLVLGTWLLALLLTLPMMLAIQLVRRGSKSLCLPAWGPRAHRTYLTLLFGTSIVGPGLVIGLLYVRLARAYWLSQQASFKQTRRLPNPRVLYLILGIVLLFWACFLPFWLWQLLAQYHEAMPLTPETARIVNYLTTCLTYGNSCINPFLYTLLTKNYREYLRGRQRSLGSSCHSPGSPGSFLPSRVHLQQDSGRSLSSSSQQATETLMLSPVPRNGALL

T2: U-II receptors (rat thoracic aorta tissue) (rat, UniProt P49684 1-386)
T2 sequence (looked up): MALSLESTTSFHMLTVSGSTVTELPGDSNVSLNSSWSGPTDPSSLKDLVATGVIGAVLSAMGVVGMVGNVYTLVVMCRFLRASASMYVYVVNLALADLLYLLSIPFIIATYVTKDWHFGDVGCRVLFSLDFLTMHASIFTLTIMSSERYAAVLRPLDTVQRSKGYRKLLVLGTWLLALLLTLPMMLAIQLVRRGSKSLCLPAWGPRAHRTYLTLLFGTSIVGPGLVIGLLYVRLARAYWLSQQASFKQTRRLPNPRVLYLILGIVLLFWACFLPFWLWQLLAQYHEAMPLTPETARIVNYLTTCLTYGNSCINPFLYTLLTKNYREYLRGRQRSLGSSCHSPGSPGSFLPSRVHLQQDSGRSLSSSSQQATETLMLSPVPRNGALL


Each molecule was assayed on U-II Stimulation of Rat Aorta Phasic Contractions (assay: not given). Details: not given.
Procedure: Example 2: Use of Rat Aorta Circular Strip for Assay U-II Antagonists
Male Sprague-Dawley rats (250-350 g), which had been quarantined for 5-7 days prior to the experiments, were sacrificed by decapitation (experiments were approved by the Advisory Committee For Animal Resources, Tulane University School of Medicine). The thoracic aorta was dissected, freed from connective tissue, and cut into rings of about 1.5 mm in width. The rings were suspended in a 15 ml organ bath containing high potassium Kreb's solution (9.15 g/L potassium chloride, 2.1 g/L sodium bicarbonate, 1.0 g/L glucose, 0.16 g/L potassium phosphate monobasic. 0.14 g/L magnesium sulfate (anhydr.), and 0.22 g/L calcium chloride (dihydr.))
Optimal tension was applied (0.2 g) to the tissues and the bath medium was maintained at 37°C and bubbled with a mixture of 95% O2/5% CO2. Prior to mounting in the organ bath, selected preparations were rubbed with a moistened cotton wool swab, in order to remove the endothelial cell layer, and the effect of this procedure was tested using an acetylcholine-relaxation test. (Gibson, A., Br. J. Pharmacol. 91:205 (1987)). The aorta rings were allowed to equilibrate for 90 min. at the optimal tensions. During the equilibration period, the bath solution was replaced every 15 min. Contractile responses of aortae rings to various concentrations of peptides were expressed in volts. Changes in arterial smooth muscle tension were recorded isometrically using a force-displacement transducer (Radnoti), and a AcqKnowledge ACK100 Version 3.2 (BIOPAC Systems, Inc., Santa Barbara, CA.)
In siliconized glass tubes, peptides were dissolved in dionized water at a concentration of 1 µg/1µL (stock solution) and then diluted 1:10 with sterile BSA-saline solution (0.1% BSA, fraction V, Sigma, St. Louis in 0.9% NaCl). All peptide solutions were prepared fresh directly before the experiments. Peptides in the concentration ranges of 10^-6 to 10^-12 M/L in a final volume of 16-80 µL were direcly introduced into the tested organ bath containing Krebs buffer continuously gassed with 95% O, and 5% CO2, and the aorta rings at an optimal resting tension (1 - 0.2g). Peptide-induced changes in tension of the aorta rings were recorded by force-displacement transducers and processed by the computer system BIOPAC Inc., as described above. Each ring was exposed to one peptide concentration only.
Various somatostatin (SRIF) antagonists were discovered to have the ability to block UII-induced phase contractions in the circular rat thoracic aorta strips. […] The polypeptide Cpa-c[D-Cys-Phe-Trp-Lys-Thr-Cys]-ValNH2 was also a strong U-II antagonist with an IC50 of 2nM. Table 1. SRIF Antagonist IC50s (nM) against U-II Stimulation of Rat Aorta Phasic Contractions

Row | IC50 [nM] | Molecule
1 | 100 | CC(C)(C)[C@@H]1NC(=O)[C@H](CCCCN)NC(=O)[C@@H](Cc2c[nH]c3ccccc23)NC(=O)[C@H](Cc2cccnc2)NC(=O)[C@H](NC(=O)[C@@H](N)Cc2ccc(F)cc2)CSSC[C@@H](C(=O)N[C@@H](Cc2ccc3ccccc3c2)C(N)=O)NC1=O [4Fpa-D-Cys-Pal-D-Trp-Lys-Tle-Cys-Nal-NH2] (H-[Phe(4-F)][dC][3Pal][dW]K[Tle]C[2Nal]-NH2; disulfide 2-7; N-terminus assumed)
2 | 1090 | CC(C)[C@@H]1NC(=O)[C@H](CCCCN)NC(=O)[C@@H](Cc2c[nH]c3ccccc23)NC(=O)[C@H](Cc2cccnc2)NC(=O)[C@H](NC(=O)[C@@H](N)Cc2ccc(F)cc2)CSSC[C@@H](C(=O)N[C@@H](Cc2ccc3ccccc3c2)C(N)=O)NC1=O [4Fpa-D-Cys-Pal-D-Trp-Lys-Val-Cys-Nal-NH2] (H-[Phe(4-F)][dC][3Pal][dW]KVC[2Nal]-NH2; disulfide 2-7; N-terminus assumed)
3 | 10 | CC(C)(C)[C@@H]1NC(=O)[C@H](CCCCN)NC(=O)[C@@H](Cc2c[nH]c3ccccc23)NC(=O)[C@H](Cc2cccnc2)NC(=O)[C@H](NC(=O)[C@@H](N)Cc2ccc(Cl)cc2)CSSC[C@@H](C(=O)N[C@@H](Cc2ccc3ccccc3c2)C(N)=O)NC1=O [Cpa-D-Cys-Pal-D-Trp-Lys-Tie-Cys-Nal-NH2] (H-[Phe(4-Cl)][dC][3Pal][dW]K[Tle]C[2Nal]-NH2; disulfide 2-7; N-terminus assumed)
4 | 2 | C[C@@H](O)[C@@H]1NC(=O)[C@H](CCCCN)NC(=O)[C@H](Cc2c[nH]c3ccccc23)NC(=O)[C@H](Cc2cccnc2)NC(=O)[C@H](NC(=O)[C@@H](N)Cc2ccc(Cl)cc2)CSSC[C@@H](C(=O)N[C@@H](Cc2ccc(Cl)cc2)C(N)=O)NC1=O [Cpa-D-Cys-Pal-Trp-Lys-Thr-Cys-Cpa-NH2]
5 | 12 | C[C@@H](O)[C@@H]1NC(=O)[C@H](CCCCN)NC(=O)[C@@H](Cc2c[nH]c3ccccc23)NC(=O)[C@H](Cc2ccc(O)cc2)NC(=O)[C@H](NC(=O)[C@@H](N)Cc2ccc(Cl)cc2)CSSC[C@@H](C(=O)N[C@@H](Cc2ccc3ccccc3c2)C(N)=O)NC1=O [Cpa-D-Cys-Tyr-D-Trp-Lys-Thr-Cys-Nal-NH2] (H-[Phe(4-Cl)][dC]Y[dW]KTC[2Nal]-NH2; disulfide 2-7; N-terminus assumed)
6 | ~100 | CC(C)[C@@H]1NC(=O)[C@H](CCCCN)NC(=O)[C@@H](Cc2c[nH]c3ccccc23)NC(=O)[C@H](Cc2cccnc2)NC(=O)[C@H](NC(=O)[C@@H](N)Cc2ccc(Cl)cc2)CSSC[C@@H](C(=O)N[C@@H](Cc2ccc(Cl)cc2)C(N)=O)NC1=O [Cpa-c[D-Cys-Pal-D-Trp-Lys-Val-Cys]-Cpa-amide] (H-[Phe(4-Cl)][dC][3Pal][dW]KVC[Phe(4-Cl)]-NH2; disulfide 2-7)
7 | 1800 | CC(C)[C@@H]1NC(=O)[C@H](CCCCN)NC(=O)[C@@H](Cc2c[nH]c3ccccc23)NC(=O)[C@H](Cc2c[nH]cn2)NC(=O)[C@H](NC(=O)[C@@H](N)Cc2ccc3ccccc3c2)CSSC[C@@H](C(=O)N[C@@H](C(N)=O)C(c2ccccc2)c2ccccc2)NC1=O [Nal-D-Cys-His-D-Trp-Lys-Val-Cys-D-Dip-NH2] (H-[2Nal][dC]H[dW]KVC[dDip]-NH2; disulfide 2-7; N-terminus assumed)

What follows are molecules tested against T1, U-II receptors (assay: Binding to U-II receptors (rat aorta tissue)). Details: unit inferred.

Row | Kd [nM] | Molecule
8 | 240 | CC(C)[C@@H]1NC(=O)[C@H](CCCCN)NC(=O)[C@@H](Cc2c[nH]c3ccccc23)NC(=O)[C@H](Cc2cccnc2)NC(=O)[C@H](NC(=O)[C@@H](N)Cc2ccc(Cl)cc2)CSSC[C@@H](C(=O)N[C@@H](Cc2ccc(Cl)cc2)C(N)=O)NC1=O [Cpa-c[D-Cys-Pal-D-Trp-Lys-Val-Cys]-Cpa-amide] (H-[Phe(4-Cl)][dC][3Pal][dW]KVC[Phe(4-Cl)]-NH2; disulfide 2-7)

These molecules were tested against T2, U-II receptors (rat thoracic aorta …) (assay: cell-based or functional assay). Details: not given.

Row | IC50 against U-II-induced phasic contractions of circular rat thoracic aorta strips [nM] | Molecule
9 | 2 | [Phe(4-Cl)][dC]FWKTCV-NH2 (disulfide 2-7 (inferred)) [Cpa-c[D-Cys-Phe-Trp-Lys-Thr-Cys]-Val-NH2 (SEQ ID NO: 5)]

Target: T2, U-II receptors (rat thoracic aorta …)
Assay: cell-based or functional assay
Details: not given
Remark: another data set of the same source

Row | IC50 (nM) against U-II Stimulation of Rat Aorta Phasic Contractions [nM] | Molecule
10 | 12 | XXYXKTCX (Cpa (p-chlorophenylalanine) at 1; D-Cys at 2; D-Trp at 4; Nal (naphthylalanine) at 8; C-terminal amide) [Cpa-D-Cys-Tyr-D-Trp-Lys-Thr-Cys-Nal-NH2 (SEQ ID NO: 9)]
11 | 10 | [Phe(4-Cl)][dC][3Pal][dW]K[Tle]C[Nal]-NH2 (disulfide 2-7 (inferred)) [Cpa-D-Cys-Pal-D-Trp-Lys-Tie-Cys-Nal-NH2 (SEQ ID NO: 10)]
12 | 1090 | [Phe(4-F)][dC][3Pal][dW]KVC[Nal]-NH2 (disulfide 2-7 (inferred)) [4Fpa-D-Cys-Pal-D-Trp-Lys-Val-Cys-Nal-NH2 (SEQ ID NO: 7)]
13 | 1800 | [Nal][dC]H[dW]KVC[dDip]-NH2 (disulfide 2-7 (inferred)) [Nal-D-Cys-His-D-Trp-Lys-Val-Cys-D-Dip-NH2 (SEQ ID NO: 6)]
14 | 100 | [Phe(4-F)][dC][3Pal][dW]K[Tle]C[Nal]-NH2 (disulfide 2-7 (inferred)) [4Fpa-D-Cys-Pal-D-Trp-Lys-Tle-Cys-Nal-NH2 (SEQ ID NO: 8)]
15 | 2 | [Phe(4-Cl)][dC][3Pal]WKTC[Phe(4-Cl)]-NH2 (disulfide 2-7 (inferred)) [Cpa-D-Cys-Pal-Trp-Lys-Thr-Cys-Cpa-NH2 (SEQ ID NO: 11)]

What follows are molecules tested against U-II receptors (rat thoracic aorta tissue) (rat) (UniProt P49684) (assay: cell-based or functional assay). Details: not given.

Row | IC50 against U-II-induced phasic contractions of circular rat thoracic aorta strips [nM] | Molecule
16 | 100 | Cpa-c[D-Cys-Pal-D-Trp-Lys-Val-Cys]-Cpa-amide (SEQ ID NO: 4) (peptide)
